Measured values published in article PMC9571049 (Molecules, 2022).
Read-outs that look alike come from different tables or passages of the source.

Assays:
[1] = biological target: H1N1 NA (A/PuertoRico/8/1934) (Influenza A virus, UniProt P03468); assay: biochemical
in vitro [2] = settings: dog
[3] = tested on: A/Goose/Guangdong/SH7/2013 (H5N1); assay: microbe, parasite or virus in culture; format: cell-based; settings: read-out: EC50 towards influenza virus H5N1
[4] = biological target: H5N1 NA (A/Goose/Guangdong/SH7/2013) (Influenza A virus, UniProt V5P6N1); format: biochemical
[5] = tested on: A/Goose/Jiangsu/1306/2014 (H5N8); assay: microbe, parasite or virus in culture; format: cell-based; settings: read-out: EC50 towards influenza virus H5N8
A/PR/8/34 (H1N1) = assay: microbe, parasite or virus in culture; format: cell-based; settings: read-out: EC50 towards influenza virus H1N1
in vitro [6] = settings: chicken
Kunming mice = settings: mouse, in vivo
A/Wisconsin/67/05 (H3N2) = assay: microbe, parasite or virus in culture; format: cell-based; settings: read-out: EC50 towards influenza virus H3N2
N1, H5N1 = settings: cited from earlier work

With `CCC(CC)O[C@@H]1C=C(C(=O)O)C[C@H](NCc2ccc(OCc3ccccc3B(O)O)cc2)[C@H]1NC(C)=O` [Compound 1c, (3R,4R,5S)-4-acetamido-5-((4-((2-boronobenzyl)oxy)benzyl)amino)-3-(pentan-3-yloxy)cyclohex-1-ene-1-carboxylic acid] as the compound, how does the IC50 [1] read?
Its IC50 is 0.69 ± 0.13 µM.

What about the melting point of the same compound?
The melting point was 146.3 to 150.5 °C (dec.).

Which results are given for `CCC(CC)O[C@@H]1C=C(C(=O)O)C[C@H](NCc2ccc(OCc3cccc(B(O)O)c3)cc2)[C@H]1NC(C)=O` [Compound 2c, (3R,4R,5S)-4-acetamido-5-((4-((3-boronobenzyl)oxy)benzyl)amino)-3-(pentan-3-yloxy)cyclohex-1-ene-1-carboxylic acid]?
IC50 [1]: 0.06 ± 0.007 µM; CC50 (in vitro [2]): > 250 µM; EC50 ([3]; Influenza A virus, H5N1, CEF): 0.69 ± 0.091 µM; fold lower potency than OSC against H5N1 in the enzymatic assay [4]: 3.9 fold; EC50 ([5]; Influenza A virus, H5N8, CEF): 1.57 ± 0.21 µM; EC50 (A/PR/8/34 (H1N1); Influenza A virus, MDCK): 0.03 ± 0.03 µM; CC50 (in vitro [6]): 143 ± 9.56 µM; behavior abnormalities (lethargy, clonic convulsions, anorexia, ruffled fur) (Kunming mice): no significant behavior abnormalities; body weight (Kunming mice): increased gradually; death (Kunming mice): no death occurred; acute toxicity (Kunming mice; 1000 mg/kg): no acute toxicity; EC50 (A/Wisconsin/67/05 (H3N2); Influenza A virus, H3N2, MDCK): 11.1 ± 1.15 µM

For `CCC(CC)O[C@@H]1C=C(C(=O)O)C[C@H](NCc2ccc(OCc3ccc(B(O)O)cc3)cc2)[C@H]1NC(C)=O` [Compound 3c, (3R,4R,5S)-4-acetamido-5-((4-((4-boronobenzyl)oxy)benzyl)amino)-3-(pentan-3-yloxy)cyclohex-1-ene-1-carboxylic acid], which IC50 [1] is on record?
Its IC50 is 0.045 ± 0.0067 µM.

What about the melting point of the same compound?
The melting point was 168.3 to 172.1 °C (dec.).

And the CC50 (in vitro [2])?
Its CC50 is > 250 µM.

And the EC50 ([3]; Influenza A virus, H5N1, CEF)?
Its EC50 is 3.2 ± 0.44 µM.

What about the EC50 ([5]; Influenza A virus, H5N8, CEF) of the same compound?
Its EC50 is 2.51 ± 0.23 µM.

And the EC50 (A/PR/8/34 (H1N1); Influenza A virus, MDCK)?
Its EC50 is 0.02 ± 0.01 µM.

What about the CC50 (in vitro [6]) of the same compound?
The CC50 was 289 ± 15.8 µM.

And the EC50 (A/Wisconsin/67/05 (H3N2); Influenza A virus, H3N2, MDCK)?
The EC50 was 3.08 ± 0.59 µM.

For `CCC(CC)O[C@@H]1C=C(C(=O)O)C[C@H](NCc2ccc(OCc3ccccc3C(=O)O)cc2)[C@H]1NC(C)=O` [Compound 4c, 2-((4-((((1S,5R,6R)-6-acetamido-3-carboxy-5-(pentan-3-yloxy)cyclohex-3-en-1-yl)amino)methyl)phenoxy)methyl)benzoic acid], which IC50 [1] is on record?
The IC50 was 15 ± 0.88 µM.

And the melting point?
The melting point was 177.1 to 178.9 °C.

With `CCC(CC)O[C@@H]1C=C(C(=O)O)C[C@H](NCc2ccc(OCc3cccc(C(=O)O)c3)cc2)[C@H]1NC(C)=O` [Compound 5c, 3-((4-((((1S,5R,6R)-6-acetamido-3-carboxy-5-(pentan-3-yloxy)cyclohex-3-en-1-yl)amino)methyl)phenoxy)methyl)benzoic acid] as the compound, how does the IC50 [1] read?
Its IC50 is 0.39 ± 0.04 µM.

Which results are given for `CCC(CC)O[C@@H]1C=C(C(=O)O)C[C@H](NCc2ccc(OCc3ccc(C(=O)O)cc3)cc2)[C@H]1NC(C)=O` [Compound 6c, 4-((4-((((1S,5R,6R)-6-acetamido-3-carboxy-5-(pentan-3-yloxy)cyclohex-3-en-1-yl)amino)methyl)phenoxy)methyl)benzoic acid]?
IC50 [1]: 0.6 ± 0.13 µM; melting point: 193.3 to 195.5 °C (dec.)

Which IC50 [1] does the source give for `CCC(CC)O[C@@H]1C=C(C(=O)O)C[C@H](NCc2ccc(OCc3cc(C(=O)O)ccc3OC)cc2)[C@H]1NC(C)=O` [Compound 7c, 3-((4-((((1S,5R,6R)-6-acetamido-3-carboxy-5-(pentan-3-yloxy)cyclohex-3-en-1-yl)amino)methyl)phenoxy)methyl)-4-methoxybenzoic acid] here?
The IC50 was 14 ± 0.93 µM.

For `CCC(CC)O[C@@H]1C=C(C(=O)O)C[C@H](NCc2ccc(OCc3ccc(C(=O)O)cc3Cl)cc2)[C@H]1NC(C)=O` [Compound 8c, 4-((4-((((1S,5R,6R)-6-acetamido-3-carboxy-5-(pentan-3-yloxy)cyclohex-3-en-1-yl)amino)methyl)phenoxy)methyl)-3-chlorobenzoic acid], which IC50 [1] is on record?
The IC50 was 0.25 ± 0.031 µM.

What about the melting point of the same compound?
Its melting point is 189.3 to 192.1 °C (dec.).

With `CCC(CC)O[C@@H]1C=C(C(=O)O)C[C@H](NCc2ccc(OCc3ccc(C(=O)O)cc3OC)cc2)[C@H]1NC(C)=O` [Compound 9c, 4-((4-((((1S,5R,6R)-6-acetamido-3-carboxy-5-(pentan-3-yloxy)cyclohex-3-en-1-yl)amino)methyl)phenoxy)methyl)-3-methoxybenzoic acid] as the compound, how does the IC50 [1] read?
Its IC50 is 3.21 ± 0.38 µM.

What about the melting point of the same compound?
Its melting point is 171.2 to 175.7 °C (dec.).

Which results are given for `CCC(CC)O[C@@H]1C=C(C(=O)O)C[C@H](NCc2ccc(OCc3ccc(C(=O)O)c(OC)c3)cc2)[C@H]1NC(C)=O` [Compound 10c, 4-((4-((((1S,5R,6R)-6-acetamido-3-carboxy-5-(pentan-3-yloxy)cyclohex-3-en-1-yl)amino)methyl)phenoxy)methyl)-2-methoxybenzoic acid]?
IC50 [1]: 3.59 ± 0.025 µM; melting point: 190.5 to 195.1 °C (dec.)

For `CCC(CC)O[C@@H]1C=C(C(=O)O)C[C@H](NCc2ccc(OCc3ccccc3[N+](=O)[O-])cc2)[C@H]1NC(C)=O` [Compound 11c, (3R,4R,5S)-4-acetamido-5-((4-((2-nitrobenzyl)oxy)benzyl)amino)-3-(pentan-3-yloxy)cyclohex-1-ene-1-carboxylic acid], which IC50 [1] is on record?
The IC50 was 1.16 ± 0.11 µM.

And the melting point?
The melting point was 150.8 to 152.7 °C.

For `CCC(CC)O[C@@H]1C=C(C(=O)O)C[C@H](NCc2ccc(OCc3cccc([N+](=O)[O-])c3)cc2)[C@H]1NC(C)=O` [Compound 12c, (3R,4R,5S)-4-acetamido-5-((4-((3-nitrobenzyl)oxy)benzyl)amino)-3-(pentan-3-yloxy)cyclohex-1-ene-1-carboxylic acid], which IC50 [1] is on record?
Its IC50 is 0.17 ± 0.0068 µM.

Which results are given for `CCC(CC)O[C@@H]1C=C(C(=O)O)C[C@H](NCc2ccc(OCc3ccc([N+](=O)[O-])cc3)cc2)[C@H]1NC(C)=O` [Compound 13c, (3R,4R,5S)-4-acetamido-5-((4-((4-nitrobenzyl)oxy)benzyl)amino)-3-(pentan-3-yloxy)cyclohex-1-ene-1-carboxylic acid]?
IC50 [1]: 0.5 ± 0.063 µM; melting point: 184.1 to 187.5 °C (dec.)

Which results are given for `CCC(CC)O[C@@H]1C=C(C(=O)O)C[C@H](NCc2ccc(OCc3cccc(C(N)=O)c3)cc2)[C@H]1NC(C)=O` [Compound 14c, (3R,4R,5S)-4-acetamido-5-((4-((3-carbamoylbenzyl)oxy)benzyl)amino)-3-(pentan-3-yloxy)cyclohex-1-ene-1-carboxylic acid]?
IC50 [1]: 0.011 ± 0.0013 µM; CC50 (in vitro [2]): > 250 µM; EC50 ([3]; Influenza A virus, H5N1, CEF): 1.18 ± 0.17 µM; EC50 ([5]; Influenza A virus, H5N8, CEF): 2.8 ± 0.46 µM; EC50 (A/PR/8/34 (H1N1); Influenza A virus, MDCK): 0.21 ± 0.02 µM; CC50 (in vitro [6]): 291 ± 17.9 µM; EC50 (A/Wisconsin/67/05 (H3N2); Influenza A virus, H3N2, MDCK): > 100 µM

With `CCC(CC)O[C@@H]1C=C(C(=O)O)C[C@H](NCc2ccc(OCc3ccc(C(N)=O)cc3)cc2)[C@H]1NC(C)=O` [Compound 15c, (3R,4R,5S)-4-acetamido-5-((4-((4-carbamoylbenzyl)oxy)benzyl)amino)-3-(pentan-3-yloxy)cyclohex-1-ene-1-carboxylic acid] as the compound, how does the IC50 [1] read?
Its IC50 is 1.73 ± 0.29 µM.

Which IC50 [1] does the source give for `CCC(CC)O[C@@H]1C=C(C(=O)O)C[C@H](NCc2ccc(OCc3cccc(S(N)(=O)=O)c3)cc2)[C@H]1NC(C)=O` [Compound 16c, (3R,4R,5S)-4-acetamido-3-(pentan-3-yloxy)-5-((4-((3-sulfamoylbenzyl)oxy)benzyl)amino)cyclohex-1-ene-1-carboxylic acid] here?
The IC50 was 0.9 ± 0.13 µM.

What about the melting point of the same compound?
Its melting point is 193.2 to 198.1 °C (dec.).

Which IC50 [1] does the source give for `CCC(CC)O[C@@H]1C=C(C(=O)O)C[C@H](NCc2ccc(OCc3ccc(S(N)(=O)=O)cc3)cc2)[C@H]1NC(C)=O` [Compound 17c, (3R,4R,5S)-4-acetamido-3-(pentan-3-yloxy)-5-((4-((4-sulfamoylbenzyl)oxy)benzyl)amino)cyclohex-1-ene-1-carboxylic acid] here?
Its IC50 is 0.027 ± 0.0048 µM.

What does the source list for `CCC(CC)O[C@@H]1C=C(C(=O)O)C[C@H](NCc2ccc(OCc3ccc(S(=O)(=O)O)cc3)cc2)[C@H]1NC(C)=O` [Compound 18c, (3R,4R,5S)-4-acetamido-3-(pentan-3-yloxy)-5-((4-((4-sulfobenzyl)oxy)benzyl)amino)cyclohex-1-ene-1-carboxylic acid]?
IC50 [1]: 1.64 ± 0.12 µM; melting point: 244.5 to 248.7 °C (dec.)

Which IC50 (N1, H5N1) does the source give for `CCC(CC)OC1C=C(C(=O)O)CC(NCc2ccc(-c3ccccc3)cc2)C1NC(C)=O` (stereo not drawn) [JMC20I] here?
Its IC50 is 0.0019 µM.

Which IC50 (N1, H5N1) does the source give for `CCC(CC)OC1C=C(C(=O)O)CC(NCc2ccc(Sc3cccs3)cc2)C1NC(C)=O` (stereo not drawn) [JMC21g] here?
Its IC50 is 0.00383 µM.

Which IC50 (N1, H5N1) does the source give for `CCC(CC)OC1C=C(C(=O)O)CC(NCc2ccc(Sc3ccccc3)cc2)C1NC(C)=O` (stereo not drawn) [JMC21h] here?
Its IC50 is 0.00096 µM.

For `CCC(CC)O[C@@H]1C=C(C(=O)O)C[C@H](NCc2ccc3sc4ccccc4c3c2)[C@H]1NC(C)=O` [JMC23d], which IC50 (N1, H5N1) is on record?
Its IC50 is 0.00027 µM.

Which IC50 (N1, H5N1) does the source give for `CCC(CC)OC1C=C(C(=O)O)CC(NCc2ccc(-c3cccs3)cc2)C1NC(C)=O` (stereo not drawn) [JMC32] here?
The IC50 was 0.0021 µM.

For `CCC(CC)O[C@@H]1C=C(C(=O)O)C[C@H](N)[C@H]1NC(C)=O` [OSC, oseltamivir carboxylate, reference compound], which CC50 (in vitro [2]) is on record?
The CC50 was > 250 µM.

And the EC50 [3]?
The EC50 was 0.76 ± 0.066 µM.

What about the EC50 [5] of the same compound?
Its EC50 is 2.01 ± 0.061 µM.

And the CC50 (in vitro [6])?
Its CC50 is 201 ± 4.05 µM.

And the EC50 (A/Wisconsin/67/05 (H3N2))?
Its EC50 is 0.36 ± 0.16 µM.

What does the source list for `CC(=O)N[C@H]1[C@H]([C@H](O)[C@H](O)CO)OC(C(=O)O)=C[C@@H]1N=C(N)N` [Zanamivir (ZAN), zanamivir, reference compound]?
CC50 (in vitro [2]): > 250 µM; EC50 (A/PR/8/34 (H1N1); Influenza A virus, MDCK): […]; EC50 (A/Wisconsin/67/05 (H3N2); Influenza A virus, H3N2, MDCK): 0.27 ± 0.03 µM
